“Also recorded” adds a separate entry of the source. Counter-ions that a name gives are not always drawn.
Columns and labels:
[1] = system: intestinal microbial community; assay: NOD: 16S rRNA V4 sequencing of fecal, cecal and ileal microbiota; assay type: in vivo, NOD mice; details: for fecal microbial community structure (PCoA, unweighted unifrac): all time points
Protocol: Fecal pellets were collected at least weekly from weaning at 3 weeks of age until the study termination at 31 weeks of age, and stored at −20° C. until processing. DNA was extracted from fecal pellets using the PowerLyzer™ PowerSoil® DNA Isolation Kit (MoBio, Carlsbad Calif.) and stored at −20° C. Cecal and ileal samples were collected upon necropsy at 6 weeks of age, upon diabetes development, or at the termination of the experiment at […] of age, and extracted using the PowerLyzer™ PowerSoil® DNA Isolation Kit.
Fecal samples collected at 3, 6, 10, and 13 weeks of age, and cecal and ileal samples collected at 6 weeks of age were used for sequencing. The V4 region of the 16S rRNA gene was amplified using universal primers 515 forward primer (5′ GTGCCAGCMGCCGCGGTAA 3′ SEQ ID NO: 54) and 806 reverse primer (5′ […] 3′ SEQ ID NO: 55) [Escherichia coli strain 83972 sequence (greengenes accession no. prokM-SA_id:470367] linked to a 12 base Goley barcode for multiplexing (Caporaso et al., The ISME Journal 2012; 6:1621-4. Caporaso et al., Proc. Natl. Acad. Sci. USA, 2011; 108 Suppl 1:4516-22). Sequencing was performed on the Miseq platform with a 15% PhiX spike.
The sequences were analyzed using the macqiime 1.7.0 software (Caporaso et al., Nature Methods 2010; 7:335-6). Sequences were aligned using the Ribosomal Database Project (RDP) classifier (Wang et al., Applied and Environmental Microbiology 2007; 73:5261-7). Taxonomy was assigned based on the GreenGenes May 2013. For alpha diversity measurements, observed number of species and phylogenic distance (PD) were calculated. For beta diversity measurements, unweighted unifrac distances were calculated (Lozupone C, Knight R., Applied and Environmental Microbiology 2005; 71:8228-35). The unweighted unifrac distances were used for principal coordinates analysis (PCoA), and visualized using the KiNG software. Further sequencing analysis and correlations were performed using the phyloseq and ellipse packages in R.

pancreatic islets = assay: NOD: pancreatic insulitis scoring in 6-week old mice; assay type: in vivo; details: p<0.05
Protocol: Pancreata from 6-week-old control, STAT and PAT mice were fixed in modified Bouin's fixative (17 ml saturated aqueous picric acid, 1 ml glacial acetic acid, 2 ml 38-40% formalin) and paraffin embedded, cut, and stained with Aldehyde Fuchsin for insulitis scoring (Leiter, Curr Protoc Immunol. 2001; Chapter 15:Unit 15 9). Five sections were made for each pancreas. Each of the sections is 5 microns thick with a 70 microns gap between sections. Insulitis was scored on a scale of 0-4: 0, normal islet; 1, peri-insular leukocyte aggregates; 2, leukocyte infiltration <25%; 3, leukocyte infiltration >25%, but <75%; 4, leukocyte infiltration >75% and β-cell destruction. For each mouse, an insulitis score was calculated based on the following formula: (total score for all islets)/(4×number of islets examined) (Forestier et al., Journal of immunology. 2007; 178, 1415). […] The most severely affected islet was scored from each section. Insulitis was scored on a scale of 0-4: 0, normal islet; 1, peri-insular leukocyte aggregates; 2, leukocyte infiltration <25%; 3, leukocyte infiltration >25%, but <75%; 4, leukocyte infiltration >75% and β-cell destruction, according to standard criteria. For the females, we scored at least 24 islets per group (5 mice per group). […] For the males, 25 islets were scored for the control and PAT group (5 mice per group), and 15 islets from the STAT group (3 mice). […]

NOD mice = assay: NOD PAT/STAT: type 1 diabetes incidence; assay type: in vivo, NOD/ShiLTj mice
Excerpt: Pregnant NOD/ShiLTj mice were randomized into 3 groups: Control, STAT, and PAT. Control mice were maintained on non-acidified sterilized water. STAT pregnant dams were given low dose penicillin beginning late in pregnancy until pups were 12 weeks of age. PAT mice were given 3 therapeutic doses of tylosin starting on day 10 of life. At 6 weeks of age, 13 male (5 control, 3 STAT, 5 PAT) and 15 female (5 per group) NOD mice were sacrificed for immune-phenotyping by flow cytometry and ileal gene expression analysis by microarray and qPCR. From 10 weeks of age to 31 weeks of age, mice were tested for diabetes weekly by blood glucose measurement and urinary glucose detection. Onset of diabetes was defined as two consecutive weeks of blood glucose >250 mg/dl and glucosuria.
For the NOD experiments, dams (and their litters) were divided into control, STAT, and PAT groups (FIG. 33). The control mice were given non-acidified sterilized water throughout the experiments, and for the 2 antibiotic groups (STAT and PAT), the antibiotics were dissolved in non-acidified sterilized water. For STAT, subtherapeutic penicillin VK (1 mg/kg/day) was added to the drinking water in late pregnancy (so that the pups pass through an altered vaginal microbiota), and then continued until day 84 of life. […] Mice were monitored for diabetes onset by glucosuria and blood glucose, starting at 10 weeks of age. […]

CC1(C)S[C@@H]2[C@H](NC(=O)COc3ccccc3)C(=O)N2[C@H]1C(=O)[O-].[K+] [STAT, penicillin VK]
Akkermansia muciniphila (species level) ([1]; STAT male cecal and ileal samples, vs controls (less than PAT)): more
prevalence of Bifidobacterium sp. ([1]; STAT-antibiotic-treated NOD mice vs controls): not different
fecal microbial community structure (PCoA, unweighted unifrac) ([1]; males and females): essentially overlap
bloom in Verrucomicrobia ([1]; cecal and ileal samples from male STAT mice): greater than in controls but less than in PAT
abundance of all 3 named Bifidobacterium species ([1]; females): increased abundance
OTU richness ([1]; females, only at 3 weeks of age, vs controls): significantly lower
OTU richness ([1]; males, at 3 and 6 weeks of age, vs controls): significantly lower
islet inflammation (insulitis score 0-4) (pancreatic islets; 6-week old NOD females, vs controls): significantly more
type 1 diabetes expression (NOD mice; NOD mice, STAT-antibiotic-treated): no different from controls

CC[C@H]1OC(=O)C[C@@H](O)[C@H](C)[C@@H](O[C@@H]2O[C@H](C)[C@@H](O[C@H]3C[C@@](C)(O)[C@@H](O)[C@H](C)O3)[C@H](N(C)C)[C@H]2O)[C@@H](CC=O)C[C@@H](C)C(=O)/C=C/C(C)=C/[C@@H]1CO[C@@H]1O[C@H](C)[C@@H](O)[C@@H](OC)[C@H]1OC [Tylosin, Tylosin tartrate]
cecal and ileal microbial composition ([1]; 6-week old NOD mice, Adonis test): significantly alters
Bacteroides ([1]; PAT samples after the first antibiotic pulse): decrease
Verrucomicrobia (phylum level) ([1]; PAT samples after the first antibiotic pulse, vs control): large bloom
Akkermansia muciniphila (species level) ([1]; PAT samples starting at 3 weeks): large bloom
Phylogenic diversity (PD) ([1]; all sample times, all sample types, males and females, vs controls): lower
OTU richness ([1]; all sample times, all sample types, males and females, vs controls, FDR p<0.05): lower
fecal microbial community structure (PCoA, unweighted unifrac) ([1]; males and females): cluster distinctly from controls
relative abundance of Bifidobacterium genus ([1]; females and males): decreases
relative abundance of three detectable Bifidobacterium species (B. animalis, B. adolescentis, B. pseudolongum) ([1]; females and males): decreases
relative abundance of unnamed Bifidobacterium species ([1]; females and males): decreases
intragroup beta diversity (unweighted Unifrac distance) ([1]; male NOD mice, vs controls): lower
insulitis (score 0-4) (pancreatic islets; 6-week old NOD males, vs control or STAT males): significantly more
development of T1D (diabetes incidence) (NOD mice; male NOD mice, onset = 2 consecutive weeks blood glucose >250 mg/dl and glucosuria, vs control, listed as PAT): accelerated; also recorded: higher rate
